Measurements as given in US20240210394A1, “MICROORGANISM CAPTURE FROM ANTIMICROBIAL-CONTAINING SOLUTION” (MOMENTUM BIOSCIENCE LIMITED, priority 2019, published 2024).

Assays:
[1] = tested on: S. aureus; assay: Blood culture time to positivity (flip time), bead rescue vs no-rescue control; format: cell-based; settings: for Flip time: Bead rescue; for Flip time in hours/mins: 2 h at 37° C.; for Time to positivity in days: 900 cfu/5 ml
Method: An overnight culture of test organism was prepared in blood/broth medium (50:50 blood:broth medium from a BioMerieux SA culture bottle).
Ten-fold serial dilutions of overnight culture was prepared in blood/broth as required.
Antibiotic (abx) was added to whole human blood (in citrate-phosphate-dextrose, CPD, an anticoagulant) at required level.
Whole blood was used as the no-antibiotic control.
(§1) Test dilution(s) of organism was added to blood+antibiotic or blood only at 10 μL per mL of blood (sufficient prepared for experiment requirements). 100 μL plate count sample was taken (TO sample).
(§2) The inoculated samples were incubated at 37° C. (static) for 2-hour. 100 μL plate count sample was taken (T2 sample).
For the control, 5 mL of spiked blood+abx or blood only was added to blood culture bottles (BioMerieux SA culture bottle) using a vial adapter (West Pharmaceutical Services, Inc. PA, US) and incubated in the automated blood culture cabinet (adapter removed).
(§3) For the ‘rescue’ test, 5 mL of spiked blood+abx or blood only was treated with Momentum Capture Beads (Streptavidin-coated, −300 nm beads, Bio estapor, Merk Cat #BE-M 08/0.3) as below: • Momentum Capture Beads diluted in Detergent-free Microbial Binding Buffer (DMBB—Tris+NaCl)—50 μL beads:700 μL DMBB per clean-up • 750 μL of diluted beads added to 50 mL conical centrifuge tube • 5 mL of broth medium added to tube • 5 mL of spiked blood+abx or blood only added to tube • Incubate on ITL TherMix (Integrated Technologies Ltd. Kent, UK), 32.5° C./30 min/1000 rpm—ramped speed protocol • Magnetise on V&P magnet (V&P scientific Inc, CA, US) for 5 min then remove supernatant • Resuspend beads in 1 mL Detergent-free Wash Buffer (DWB—Tris+NaCl) off magnet and transfer to 2 mL Eppendorf flip-top tube on DynaMag-2 magnet (Thermo Fisher Scientific, Life Technologies Ltd. Paisley, UK) • Magnetise for 5 min then remove supernatant • Resuspend beads in 1 mL DWB off magnet then replace on DynaMag-2 magnet • Magnetise for 5 min then remove supernatant • Resuspend beads in 1 mL DWB, add to a fresh, unused blood culture bottle (BioMerieux SA culture bottle) containing standard blood culture growth medium using a vial adapter, and start incubation (adapter removed). • Blood culture bottles are incubated in the automated blood culture cabinet (BacT/ALERT BioMerieux) which records time to positivity. The “Flip” time is when a bottle turns positive as determined by the automated blood culture cabinet. • “Flip” time of each bottle is recorded. • Plate counts (Total Viable Count TVC) are recorded.
Day 1: Prepare overnight culture of test organism in blood/broth medium (50:50 blood:broth) and incubate at 37° C. in a shaking incubator.
(§4) Day 2: Prepare ten-fold serial dilution of overnight culture in blood/broth as required • Antibiotic added to whole blood (defibrinated horse blood) at required level • Whole blood as no-antibiotic control • Test dilution(s) of organism added to blood+antibiotic or blood only at 10 μL per mL of blood (sufficient prepared for experiment requirements) • 100 μL plate count sample taken (TO sample) • 2-hour incubation at 37° C. (static), to mimic organism exposure to antimicrobials in the patient • 100 μL plate count sample taken (T2 sample) • 5 mL of spiked blood+abx or blood only added to blood culture bottle (using vial adapter) and incubation started (adapter removed) • 5 mL of spiked blood+abx or blood only (from same source) treated with Momentum Capture Beads as below: • 1. Momentum Capture Beads diluted in Detergent-free Microbial Binding Buffer (DMBB)—50 μL beads:700 μL DMBB per clean-up • 2. 750 μL of diluted beads added to 50 mL conical centrifuge tube • 3. 5 mL of transfer medium added to tube • 4. 5 mL of spiked blood+abx or blood only added to tube • 5.

[2] = tested on: S. aureus; assay: Total viable count (TVC) plate counts of spiked samples (T0/T2); format: cell-based; settings: for TVC T2: 100 μL plated after 2 h at 37° C.; for TVC T0: 100 μL plated at time 0
Method: as §1, §2, §3
as §4, with “Momentum Capture Beads diluted in Detergent-free Microbial Binding Buffer (DMBB)—50 μL beads:700 μL DMBB per clean-up • 2. 750 μL of diluted beads added to 50 mL conical centrifuge tube • 3. 5 mL of transfer medium added to tube • 4. 5 mL of spiked blood+abx or blood only added to tube • 5.” left out
Day 3: Plate counts recorded. […]

[3] = S. aureus spike dil 10-3 in blood + Piperacillin 96 ug/ml
[4] = S. aureus spike dil 10-4 in blood + Piperacillin 96 ug/ml

For CCN1CCN(C(=O)N[C@@H](C(=O)N[C@@H]2C(=O)N3[C@@H]2SC(C)(C)[C@@H]3C(=O)O)c2ccccc2)C(=O)C1=O [Piperacillin], the “Flip time” value ([1]; Piperacillin 96 ug/mL blood, CPD human blood, 750 cfu/5 mL) was 0.62 days, the “Flip time” value ([1]; Piperacillin 96 ug/mL blood, CPD human blood, 5000 cfu/5 mL) was 0.57 days and the “Flip time” value ([1]; Piperacillin 96 ug/mL blood, defibrinated horse blood, 5000 cfu/5 ml) was 0.78 days. For the same compound, the “Flip time” value ([1]; Piperacillin 96 ug/mL blood, defibrinated horse blood, 50000 cfu/5 ml) was 0.65 days, the “Flip time” value ([1]; S. aureus spike dil 10-3, Piperacillin 96 ug/ml human blood, SA bottle) was 0.57 days and the “Flip time” value ([1]; S. aureus spike dil 10-4, Piperacillin 96 ug/ml human blood, SA bottle) was 0.62 days. For the same compound, the “Flip time in Days” value ([1]; Control (no bead rescue), Piperacillin 96 ug/mL blood, CPD human blood, 750 cfu/5 mL) was “Neg”, the “Flip time in Days” value ([1]; Control (no bead rescue), Piperacillin 96 ug/mL blood, CPD human blood, 5000 cfu/5 mL) was “Neg” and the “Flip time in Days” value ([1]; Control (no bead rescue), Piperacillin 96 ug/mL blood, defibrinated horse blood, 5000 cfu/5 ml) was “Neg”. The “Flip time in Days” value ([1]; Control (no bead rescue), Piperacillin 96 ug/mL blood, defibrinated horse blood, 50000 cfu/5 ml) was “Neg”, the “Flip time in hours/mins” value ([1]; Control (no bead rescue), S. aureus spike dil 10-3, Piperacillin 96 ug/ml human blood, SA bottle) was “Negative at 120 h” and the “Flip time in hours/mins” value ([1]; Control (no bead rescue), S. aureus spike dil 10-4, Piperacillin 96 ug/ml human blood, SA bottle) was “Negative at 120 h”. For the same compound, the “Flip time in Days” value ([1]; No bead rescue Control BC, Piperacillin 96 ug/mL blood, 10000 cfu/5 mL) was “Neg”, the “Flip time in Days” value ([1]; No bead rescue Control BC, Piperacillin 96 ug/mL blood, 50000 cfu/5 mL) was “Neg” and the “Time to positivity in days” value ([1]; Piperacillin 96 ug/mL blood, Control (no beads)) was “Neg”. The “Time to positivity in days” value ([1]; Piperacillin 96 ug/mL blood, with magnetic beads in the bottle) was “Neg”, the “TVC T2” value [2, 3] was 2 and the “TVC T0” value [2, 3] was 98. The “TVC T2” value [2, 4] was 0 and the “TVC T0” value [2, 4] was 15.
